Assay results reported in patent publication US20250263370A1 (Tay Therapeutics Limited, priority 2022, published 2025).

Experiments:
BRD4 BD2 = BRD4 BD2 (Homo sapiens (Human), UniProt O60885); test: NanoBRET bromodomain assay, NanoLuc-BRD4-BD2 fusion in HEK293 cells;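 further: tracer displacement BRET read in transfected cells after 2 h compound exposure at 37 °C, signal in milliBRET units corrected against no-tracer background wells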
[1] = Sprague-Dawley rat pharmacokinetics, IV and PO cassette dosing; type: in vivo
Outline: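 Male Sprague-Dawley rats (2 per arm) given up to 5 compounds in cassette, 1 mg/kg IV and 5 mg/kg PO, formulated in 5% DMSO/40% PEG-400/55% water. Plasma from serial blood samples was acetonitrile-precipitated and analysed by LC/MS/MS against matrix-matched standard curves.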

## CNC(=O)c1[nH]c(C(=O)NC2CCC2)cc1O[C@@H](C)c1ccccc1 (stereo in doubt) [Example 101, N^5-cyclobutyl-N^2-methyl-3-(1-phenylethoxy)-1H-pyrrole-2,5-dicarboxamide]
BRD4 BD2
  selectivity for BDII relative to GSK620: more selective than GSK620 for BDII by greater than about two orders of magnitude
BRD4 BD2; BRD4 BD2 (IC50), NanoBRET, HEK293 cells, top concentration 10 μM
  IC50: < 50 nM
BRD4 BD2; IC50 for BRD4 BD1 divided by IC50 for BRD4 BD2, qualitative if an IC50 is at the upper limit
  Fold selectivity: XXX (Fold >200)
[1]; PO 5 mg/kg, Method 1
  PO F: 66%
[1]; male, Sprague-Dawley, rat, plasma, iv, 1 mg/kg, IV 1 mg/kg, Method 1, read-out: IV T1/2 (converted)
  half-life: 54 min
